Structures can show the parent of a compound that is named as a salt. Residues, ends and D or L forms follow the SMILES beside them.
Each molecule was assayed on HT29. Conditions: 72 h, relative to DMSO, 10 µM, Relative cell viability (%).
Method in brief: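 HT29 viability used WST-1 reduction (2 h, 37 °C, A450) after 72 h of treatment; screening compounds were tested singly at 10 µM, with dimethyl sulfoxide as the comparison.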

In order of rising “Relative cell viability (%)” value:
1. CC/C(=C(\c1ccccc1)c1ccc(OCCN(C)C)cc1)c1ccccc1 [Tamoxifen]  18.22%
2. CCN(C)C(=O)Oc1cccc([C@H](C)N(C)C)c1 [Rivastigmine]  88.03%
3. Cc1c(-c2ccc(O)cc2)n(Cc2ccc(OCCN3CCCCCC3)cc2)c2ccc(O)cc12 [Bazedoxifene Acetate]  88.41%
4. COc1ccc2nc([S@@+]([O-])Cc3ncc(C)c(OC)c3C)[nH]c2c1 [Esomeprazole Sodium]  105.5%
5. CC(C)NCC(O)COc1ccc(CCOCC2CC2)cc1 (centres unmarked) [Betaxolol]  109.6%
6. CCN(C)C(=O)Oc1cccc([C@H](C)N(C)C)c1 [Rivastigmine Tartrate]  125%
7. COc1cc2nc(N3CCN(C(=O)C4CCCO4)CC3)nc(N)c2cc1OC (centres unmarked) [Terazosin HCl]  142.1%

Same assay, conditions: 72 h, relative to DMSO; 10 µM

In order of falling “Relative cell viability (%)” value:
1. CC1=C(CC(=O)O)c2cc(F)ccc2/C1=C\c1ccc([S+](C)[O-])cc1 (centres unmarked) [Sulindac]  216.9%
2. COC(=O)[C@H](Cc1ccccc1)NC(=O)[C@@H](N)CC(=O)O [Aspartame] (H-Asp-Phe-OMe)  199.9%
3. CN1CCN2c3ncccc3Cc3ccccc3C2C1 (centres unmarked) [Mirtazapine]  177.9%
4. CC(S)C(=O)NCC(=O)O (centres unmarked) [Tiopronin]  149.2%
5. CCN(Cc1ccncc1)C(=O)C(CO)c1ccccc1 (centres unmarked) [Tropicamide]  144.5%
6. CN(C)C(=O)COC(=O)Cc1ccc(OC(=O)c2ccc(NC(=N)N)cc2)cc1 [Camostat Mesilate]  140.8%
7. C[N+]1(C)[C@@H]2C[C@@H](OC(=O)[C@H](CO)c3ccccc3)C[C@H]1[C@@H]1O[C@@H]12 [Methscopolamine]  132.5%
8. O=P1(N(CCCl)CCCl)NCCCO1 (centres unmarked) [Cyclophosphamide Monohydrate]  130.7%
9. COCCCN1CCC(NC(=O)c2cc(Cl)c(N)c3c2OCC3)CC1 [Prucalopride]  129.1%
10. CC(C)OC(=O)[C@H](C)N[P@](=O)(CO[C@H](C)Cn1cnc2c(N)ncnc21)Oc1ccccc1 [Tenofovir Alafenamide (GS-7340)]  125.2%
11. OC[C@@H](O)[C@@H](O)[C@H](O)[C@@H](O)CO [Sorbitol]  125%
12. C[C@H]1COc2c(N3CCN(C)CC3)c(F)cc3c(=O)c(C(=O)O)cn1c23 [Levofloxacin]  124%
13. O=C(Nc1c(Cl)cncc1Cl)c1ccc(OC(F)F)c(OCC2CC2)c1 [Roflumilast]  121.4%
14. CCN(c1cc(-c2ccc(CN3CCOCC3)cc2)cc(C(=O)NCc2c(C)cc(C)[nH]c2=O)c1C)C1CCOCC1 [EPZ-6438]  121.4%
15. O=C(C[S+]([O-])Cc1ccco1)NC/C=C\COc1cc(CN2CCCCC2)ccn1 (centres unmarked) [Lafutidine]  119.6%
16. Cc1cccc(Cc2c[nH]cn2)c1C [Detomidine HCl]  118.5%
17. Oc1cc(O)c(Cl)cn1 [Gimeracil]  117.6%
18. COc1ccc(C(=O)CC(=O)c2ccc(C(C)(C)C)cc2)cc1 [Avobenzone]  117.3%
19. CCOC(=O)[C@H](CCc1ccccc1)N[C@H]1CS[C@H](c2cccs2)CN(CC(=O)O)C1=O [Temocapril HCl]  117.3%
20. CN1[C@@H]2CC[C@H]1C[C@@H](OC(=O)c1c[nH]c3ccccc13)C2 [Tropisetron]  115.5%
21. O=C[C@H](O)[C@@H](O)[C@H](O)CO [Xylose]  114.9%
22. Cc1cccc([C@H](C)c2cnc[nH]2)c1C [Dexmedetomidine HCl (Precedex)]  113.8%
23. Cc1ncc([N+](=O)[O-])n1CCO [Metronidazole]  113.4%
24. C[C@@H]1O[C@@H](OC[C@H]2O[C@@H](Oc3c(-c4ccc(O)c(O)c4)oc4cc(O)cc(O)c4c3=O)[C@H](O)[C@@H](O)[C@@H]2O)[C@H](O)[C@H](O)[C@H]1O [Rutin]  112%
25. CNC1CCCN(c2c(F)cc3c(=O)c(C(=O)O)cn(C4CC4)c3c2OC)C1 (centres unmarked) [Balofloxacin]  111.9%
26. CCCCN1CCCCC1C(=O)Nc1c(C)cccc1C (centres unmarked) [Bupivacaine HCl]  106.7%
27. NC12CC3CC(CC(C3)C1)C2 [Amantadine HCl]  105.5%
28. CN(C(=O)c1ccc(F)cc1C(F)(F)F)C1CCN(c2nnc(-c3ccnn3C)c3ccccc23)CC1 [Taladegib (LY2940680)]  105.5%
29. CNC(=O)[C@H](Cc1ccccc1)NC(=O)[C@H](CC(C)C)[C@H](CSc1cccs1)C(=O)NO [Batimastat (BB-94)]  103.4%
30. C#CCN[C@@H]1CCc2ccccc21 [Rasagiline Mesylate]  103.1%
31. CCCCOc1ccc(CC(=O)NO)cc1 [Bufexamac]  101.5%
32. CC(C)C(=O)Nc1ccc([N+](=O)[O-])c(C(F)(F)F)c1 [Flutamide]  100.9%
33. C[C@H](CCC(=O)O)[C@H]1CC[C@H]2[C@@H]3CC[C@@H]4C[C@H](O)CC[C@]4(C)[C@H]3C[C@H](O)[C@]12C [Deoxycholic acid]  90.6%
34. CC[C@H](C)C(=O)O[C@H]1C[C@H](O)C=C2C=C[C@H](C)[C@H](CC[C@@H](O)C[C@@H](O)CC(=O)O)[C@H]21 [Pravastatin sodium]  89.81%
35. c1ccc(-c2ccc(C(c3ccccc3)n3ccnc3)cc2)cc1 (centres unmarked) [Bifonazole]  88.14%
36. CC(C)(C)NCC(O)COc1cccc2c1CCC(=O)N2 (centres unmarked) [Carteolol HCl]  86.67%
37. COC(=O)C1=C(C)NC(C)=C(C(=O)OCCN(C)Cc2ccccc2)C1c1cccc([N+](=O)[O-])c1 (centres unmarked) [Nicardipine HCl]  83.03%
38. CC(C(=O)O)c1ccc(CC2CCCC2=O)cc1 (centres unmarked) [Loxoprofen]  82.91%
39. COC(=O)C1=C(C#N)NC(C)=C(C(=O)OC(C)C)C1c1cccc([N+](=O)[O-])c1 (centres unmarked) [Nilvadipine]  81.07%
40. NC1=NCC2c3ccccc3Cc3ccccc3N12 (centres unmarked) [Epinastine HCl]  78.48%
41. Nc1ncnc2c1ncn2[C@@H]1O[C@H](CO)[C@@H](O)[C@@H]1O [Vidarabine]  74.15%
42. CO[C@H]1/C=C/O[C@@]2(C)Oc3c(C)c(O)c4c(c3C2=O)C2=NC3(CCN(CC(C)C)CC3)NC2=C(NC(=O)/C(C)=C\C=C\[C@H](C)[C@H](O)[C@@H](C)[C@@H](O)[C@@H](C)[C@H](OC(C)=O)[C@@H]1C)C4=O [Rifabutin]  70.34%
43. N[C@@H](Cc1cc(I)c(Oc2cc(I)c(O)c(I)c2)c(I)c1)C(=O)O [L-Thyroxine]  67.96%
44. Nc1c(Br)cc(Br)cc1CN[C@H]1CC[C@H](O)CC1 [Ambroxol HCl]  67.96%
45. CO/N=C(\C(=O)N[C@@H]1C(=O)N2C(C(=O)OCOC(=O)C(C)(C)C)=C(/C=C\c3scnc3C)CS[C@H]12)c1csc(N)n1 [Cefditoren Pivoxil]  66.53%
46. OC(Cn1cncn1)(Cn1cncn1)c1ccc(F)cc1F [Fluconazole]  66.51%
47. N=C(N)c1ccc2cc(OC(=O)c3ccc(N=C(N)N)cc3)ccc2c1 [Nafamostat Mesylate]  66.51%
48. Cc1cc(O)ccc1Cl [Chlorocresol]  65.76%
49. CC1CC(OC(=O)C(O)c2ccccc2)CC(C)(C)C1 (centres unmarked) [Cyclandelate]  65.76%
50. Clc1ccc(C(c2ccccc2Cl)C(Cl)Cl)cc1 (centres unmarked) [Mitotane]  63.98%
51. CC1=C(/C=C/C(C)=C/C=C/C(C)=C\C(=O)O)C(C)(C)CCC1 [Isotretinoin]  60.28%
52. OC(CCCN1CCCCC1)(c1ccccc1)c1ccccc1 [Diphenidol HCl]  59.39%
53. Cc1cccc(C(C)c2cnc[nH]2)c1C (centres unmarked) [Medetomidine HCl]  57.77%
54. CN(C)c1nc(N(C)C)nc(N(C)C)n1 [Altretamine]  57.17%
55. NC(=O)CN1CC(O)CC1=O (centres unmarked) [Oxiracetam]  54.85%
56. CN1C[C@@H]2c3ccccc3Oc3ccc(Cl)cc3[C@H]2C1 (racemic) [Asenapine]  50.93%
57. Cc1nc(NC(=O)N2CCC[C@H]2C(N)=O)sc1-c1ccnc(C(C)(C)C(F)(F)F)c1 [BYL719]  50.49%
58. Nc1cc(C(Cl)=C(Cl)Cl)c(S(N)(=O)=O)cc1S(N)(=O)=O [Clorsulon]  49.03%
59. Cc1ccc(-n2nc(C(C)(C)C)cc2NC(=O)NCc2cc(F)ccc2Oc2ccc3c(cnn3CCO)c2)cc1 [Pexmetinib (ARRY-614)]  47.01%
60. CN(C)[C@@H](CCOc1cccc2ccccc12)c1ccccc1 [Dapoxetine HCl]  44.92%
61. O=C(/C=C\n1cnc(-c2cc(C(F)(F)F)cc(C(F)(F)F)c2)n1)NNc1cnccn1 [KPT-330]  44.44%
62. COc1cc(OC)c(C(=O)CCCN2CCCC2)c(OC)c1 [Buflomedil HCl]  34.47%
63. Fc1ccc([C@@H]2CCNC[C@H]2COc2ccc3c(c2)OCO3)cc1 [Paroxetine HCl]  19.9%
64. CCC1=C[C@@H]2CN(C1)Cc1c([nH]c3ccccc13)[C@@](C(=O)OC)(c1cc3c(cc1OC)N(C)[C@H]1[C@@](O)(C(=O)OC)[C@H](OC(C)=O)[C@]4(CC)C=CCN5CC[C@]31[C@@H]54)C2 [Vinorelbine Tartrate]  15.76%
65. CC1=CC(=O)c2ccccc2C1=O [Menadione]  15.16%
66. Cc1ccc(NC(=O)c2ccc(CN3CC[C@H](N(C)C)C3)c(C(F)(F)F)c2)cc1Nc1nccc(-c2cncnc2)n1 [Bafetinib (INNO-406)]  4.206%
67. Cc1cc(Nc2ncc(Cl)c(Nc3ccccc3S(=O)(=O)C(C)C)n2)c(OC(C)C)cc1C1CCNCC1 [LDK378]  0%
